Measurements reported in patent publication US12570684B2 (UNIVERSITY OF TENNESSEE RESEARCH FOUNDATION, priority 2020, dated 2026).
“And” between values parts separate entries of the source, which are not always exact repeats. Equal entries are not always repeated. Where two headings read alike, the source gives them in different places.

How the values were obtained:
[1] = biological target: MraY (Hydrogenivirga sp.) (Hydrogenivirga sp. 128-5-R1-1, UniProt Z9Y2G8N0L0); assay: MraY assay; format: biochemical
Description: Expression and purification of HyMraY. The gene mraY of Hydrogenivirga spp. 128-5-R1-1 was cloned with a N-terminal His6 tag into a pET22b vector. […] The proteins were purified using a nickel, cation exchange, and size exclusion chromatography.
MraY assay. MraY assay substrates, Park's nucleotide-N^ε-C6-dansylthiourea, neryl phosphate, were chemically synthesized according to the reported procedures.^7 Park's nucleotide-N^ε-C6-dansylthiourea (2 mM stock solution, 1.88 jiL), MgCl2 (0.5 M, 5 jiL), KCl (2 M, 5 jiL), Triton X-100 (0.5%, 5.63 jiL), Tris buffer (pH 8.0, 50 mM), neryl phosphate (0.1 M, 2.25 jiL), and inhibitor molecule (0-50 .ig/mL in Tris buffer) were placed in a 1.5 mL Eppendorf tube. […] (26° C.) and quenched with CHCl3 (100 jiL). […] The aqueous phase was assayed via reverse-phase HPLC.

WecA (E. coli) = WecA (E. coli) (Escherichia coli, UniProt P0AC78); assay: WecA assay
Description: Preparation of membrane fraction P-60 containing WecA. E. coli B21 wecA strain were harvested by centrifugation (4,700 rpm) at 4° C. followed by washing with 0.9% saline solution (thrice). The washed cell pellets were washed with homogenization buffer (containing 50 mM K2HPO4, 5 mM MgCl2, 5 mM 1,4-dithio-DL-threitol, and 10% glycerol, pH=7.2) (thrice), and approximately 5 g of pellet (wet weight) was collected. The washed cell pellets were suspended in homogenization buffer and disrupted by probe sonication on ice (5 s on and 2 s off for 1 min, then cool down for 1.5 min., 5 cycles, cool down for 15 min, and then, 5 s on and 2 s off for 1 min., cool down for 1.5 min, 5 cycles). The resulting suspension was centrifuged at 4,700×g for 15 min. at 4° C. to remove unbroken cells. The lysate was centrifuged at 25,000×g for 20 min. at 4° C. The supernatant was subjected to ultracentrifugation at 60,000×g for 1 h at 4° C. The supernatant was discarded, and the membrane fraction containing WecA enzyme (P-60) was suspended in the Tris-HCl buffer (pH=7.5). Total protein concentrations were approximately 8 to 10 mg/mL. Aliquots were stored in Eppendorf tubes at −80° C.

AsPC-1 = assay: MTT cytotoxicity assay; format: cell-based, human
Description: (§1) Cell lines. The human primary PDAC cell lines PANC-1 (ATCC CRL 1469); Capan-2 (ATCC HTB-80) and metastatic PDAC cell lines Capan-1 (ATCC HTB-79), AsPC-1 (ATCC CRL-1682), L1210 (ATCC CCL-219), KB (ATCC CCL-17), HeLa, SiHa (ATCC HTB-35), HCT-116 (ATCC CCL-247), DLD-1 (ATCC CCL221), hTERT-HPNE (ATCC CRL-4023), Vero (ATCC CCL-81) were purchased from the ATCC. The cell lines were cultured and maintained in the media as recommended by the supplier. The cell lines were regularly tested for mycoplasma contamination and authenticated. In addition to ATCC cell lines, Dr. Glazer's lab generated patient-derived PDAC cell line, PD002. PD002 Cells were maintained and cultured in DMEM medium supplemented with 20% FBS and 100 IU/mL penicillin and incubated at 37° C. with 5% CO2.
(§2) MTT cytotoxicity assay. To study the effect of treatment with DPAGT1 inhibitors on the growth and proliferation of cells, a fixed number of cells (5×10^4 cells/well, 196 μL) were plated in a 96 well plate. Into each well 5 μL of drug concentration was added. After 72 h of incubation with drugs at 37° C., 5% CO2, 10 μL of MTT solution (5 mg/mL in PBS) was added and incubated another 3 h at 37° C., 5% CO2. The medium was removed, and DMSO (200 μL/well) was added. Viability was assessed on the basis of cellular conversion of MTT into a purple formazan product. The absorbance of the colored formazan product was measured at 570 nm by BioTek Synergy HT Spectrophotometer.

PANC-1 = assay: MTT cytotoxicity assay; format: cell-based, human
Description: as §1, §2

Capan-2 = assay: MTT cytotoxicity assay; format: cell-based, human
Description: as §1, §2

cell lines in Table 2 = assay: MTT assays, summary over the cell lines in Table 2; format: cell-based
Description: as §1, §2

[2] = test system: Myocobacterium tuberculosis H37Rv, Mycobacterium avium 2285, Mycobacterium smegmatis (ATCC607); assay: Antimycobacterial activity (MIC); format: cell-based, Mycobacterium spp.; details: at 50 μg/mL
HPNE = assay: MTT cytotoxicity assay; format: cell-based; details: for IC50: MTT, 72 h
Description: as §1, §2

L1210 = assay: MTT cytotoxicity assay; format: cell-based; details: for IC50: MTT, 72 h
Description: as §1, §2

PD002 [3] = assay: MTT cytotoxicity assay; format: cell-based; details: MTT, 72 h
Description: as §1, §2

Vero = assay: MTT cytotoxicity assay; format: cell-based; details: for IC50: MTT, 72 h
Description: as §1, §2

KB = assay: MTT cytotoxicity assay; format: cell-based; details: 72 h
Description: as §1, §2

DLD-1 = assay: MTT cytotoxicity assay; format: cell-based
Description: as §1, §2

HCT-116 = assay: MTT cytotoxicity assay; format: cell-based
Description: as §1, §2

SiHa = assay: MTT cytotoxicity assay; format: cell-based; details: 72 h
Description: as §1, §2

DPAGT1 (Human) = biological target: T1, DPAGT1 (Human) (Homo sapiens, UniProt Q9H3H5); assay: DPAGT1 assay; format: biochemical
T1 construct: made in house; host or cells: Expi293 cells (suspension)
T1 sequence (Q9H3H5 1-408): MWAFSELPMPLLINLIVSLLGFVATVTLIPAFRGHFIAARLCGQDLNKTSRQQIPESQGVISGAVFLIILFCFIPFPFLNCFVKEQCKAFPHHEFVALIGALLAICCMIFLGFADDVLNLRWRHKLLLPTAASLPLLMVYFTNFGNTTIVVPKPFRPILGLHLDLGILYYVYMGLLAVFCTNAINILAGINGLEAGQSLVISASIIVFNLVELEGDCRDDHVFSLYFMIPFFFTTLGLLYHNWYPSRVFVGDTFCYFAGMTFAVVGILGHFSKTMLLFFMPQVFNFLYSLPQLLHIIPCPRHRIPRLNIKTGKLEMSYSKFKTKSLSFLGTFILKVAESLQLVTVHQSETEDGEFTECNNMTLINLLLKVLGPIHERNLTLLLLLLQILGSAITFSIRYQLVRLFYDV
Description: DPAGT1 expression and purification. DPAGT1 was expressed in suspended Expi293 cells for 36 h. The cells were lysed by drawing through a 26 g needle (10 times) and membrane protein was extracted using buffer containing 1% decyl f3-D-maltopyranoside detergent. DPAGT1 was purified using HA-agarose resin and a superdex 200 size exclusion column.

AglH (M. jannaschii) = biological target: T2, AglH (M. jannaschii) (Methanocaldococcus jannaschii, UniProt Q58513); assay: AglH assay
T2 sequence (Q58513 1-301): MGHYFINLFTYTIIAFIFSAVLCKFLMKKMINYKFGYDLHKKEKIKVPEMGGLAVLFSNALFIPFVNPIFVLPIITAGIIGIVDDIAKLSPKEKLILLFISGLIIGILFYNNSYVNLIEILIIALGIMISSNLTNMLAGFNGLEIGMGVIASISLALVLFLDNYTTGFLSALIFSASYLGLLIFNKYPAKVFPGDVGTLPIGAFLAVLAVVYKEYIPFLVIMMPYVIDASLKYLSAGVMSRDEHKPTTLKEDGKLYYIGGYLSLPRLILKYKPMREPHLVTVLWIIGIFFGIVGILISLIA

MraY = details: background; cited from earlier work
MraY/MurX = MraY/MurX (Mycobacterium tuberculosis, UniProt P9WMW7); details: background; cited from earlier work
WecA = details: background; cited from earlier work
mice = details: IP; cited from earlier work
DPAGT1 [4] = assay: Immunofluorescent staining of DPAGT1 expression; format: cell-based
PD002 [5] = assay: Scratch (wound healing) assay; format: cell-based; details: 0.2 μM, 24 h; untreated PD002 63%
Description: Scratch Assay. A confluent monolayer was formed in 24-well plates. The monolayer was scratched by a sterile 200 μL pipette tip and washed with PBS to remove cell debris. Complete medium with CPPB (5) (0, 0.05, 0.1, 0.2 μM) were added and scratched areas were photographed with microscope. The scratched cells were incubated at 37° C., 5% CO2. After 24 h, medium was removed and cells were stained with a 1:1 mixture of crystal violet and PBS for 5 min., washed with PBS twice, and photographed with microscope. Wound areas were measured and recovered areas were calculated.

DPAGT1 [6] = details: background; cited from earlier work
DPAGT1 gene = assay: RT-qPCR analyses of DPAGT1 expression level; format: cell-based; details: PD002

Chain of WecA (E. coli) (P0AC78 whole entry): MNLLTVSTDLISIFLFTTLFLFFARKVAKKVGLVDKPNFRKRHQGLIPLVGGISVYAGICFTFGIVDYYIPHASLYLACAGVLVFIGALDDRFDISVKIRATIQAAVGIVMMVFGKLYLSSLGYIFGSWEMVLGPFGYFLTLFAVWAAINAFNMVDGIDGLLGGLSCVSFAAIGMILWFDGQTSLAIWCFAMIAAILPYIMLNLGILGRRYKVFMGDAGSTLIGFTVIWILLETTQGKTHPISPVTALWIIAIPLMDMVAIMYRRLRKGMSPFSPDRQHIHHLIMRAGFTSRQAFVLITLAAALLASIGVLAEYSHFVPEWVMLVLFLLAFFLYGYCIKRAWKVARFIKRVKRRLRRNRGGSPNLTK
Chain of MraY (Hydrogenivirga sp.) (Z9Y2G8N0L0 7-365 limits assumed): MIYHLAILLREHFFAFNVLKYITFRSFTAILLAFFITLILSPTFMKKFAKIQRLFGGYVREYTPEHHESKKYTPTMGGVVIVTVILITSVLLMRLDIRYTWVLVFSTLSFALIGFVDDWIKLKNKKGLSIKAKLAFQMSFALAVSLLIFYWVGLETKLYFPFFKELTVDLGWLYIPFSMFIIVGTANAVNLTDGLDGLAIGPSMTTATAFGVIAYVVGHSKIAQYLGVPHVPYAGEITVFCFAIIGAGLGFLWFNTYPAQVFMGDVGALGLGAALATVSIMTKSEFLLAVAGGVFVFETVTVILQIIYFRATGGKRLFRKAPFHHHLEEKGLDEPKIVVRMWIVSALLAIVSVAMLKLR
Chain of MraY/MurX (P9WMW7 whole entry): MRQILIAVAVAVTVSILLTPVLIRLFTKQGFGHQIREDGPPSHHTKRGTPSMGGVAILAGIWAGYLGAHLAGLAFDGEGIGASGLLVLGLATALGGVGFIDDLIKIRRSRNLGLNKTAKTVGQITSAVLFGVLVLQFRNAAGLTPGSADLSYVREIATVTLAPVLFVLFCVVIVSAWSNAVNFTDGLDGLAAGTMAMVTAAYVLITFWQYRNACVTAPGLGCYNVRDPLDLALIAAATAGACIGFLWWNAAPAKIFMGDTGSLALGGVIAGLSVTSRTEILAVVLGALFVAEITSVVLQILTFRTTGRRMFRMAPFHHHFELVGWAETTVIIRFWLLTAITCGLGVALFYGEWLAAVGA

CO[C@@H]1[C@H](O)[C@@H]([C@@H](O[C@H]2OC(C(=O)NCc3ccc(N4CCC(Oc5ccc(OC(F)(F)F)cc5)CC4)cc3)=C[C@H](O)[C@@H]2O)C(N)=O)O[C@H]1n1ccc(=O)[nH]c1=O
MraY inhibitory activity (in words) [1]: did not display MraY inhibitory activity | WecA inhibitory activity (in words) (WecA (E. coli)): very weak | IC50 (AsPC-1; Homo sapiens, ASPC1, 72 h): 30 µM | IC50 (PANC-1; Homo sapiens, PANC-1, 72 h): 45 µM | IC50 (Capan-2; Homo sapiens, Capan-2, 72 h): 40 µM | IC50 (cell lines in Table 2; KB, SiHa, HCT-116, DLP-1, Capan-2, PANC-1, AsPC-1, PD002, MTT assays, read-out: IC50 range, growth inhibition of solid cancer cell lines): 15 to 40 µM | growth inhibitory activity against Mycobacterium spp. [2]: did not show growth inhibitory activity | IC50 (HPNE; HPNE): > 50 µM | antiproliferative activity against HPNE (HPNE; at 50 μM, normal pancreatic ductal cell): did not show antiproliferative activity | antiproliferative activity against L1210 (L1210; at 50 μM): did not show antiproliferative activity | IC50 (PD002 [3]; PD002): 50 µM | IC50 (Vero; Chlorocebus sabaeus, Vero): > 50 µM | antiproliferative activity against Vero (Vero; at 50 μM, normal kidney cell): did not show antiproliferative activity | IC50 (KB; Homo sapiens, KB): 35 µM | IC50 (DLD-1; Homo sapiens, DLD-1, 72 h): 35 µM | IC50 (HCT-116; Homo sapiens, HCT-116, 72 h): 25 µM | IC50 (SiHa; Homo sapiens, SiHa): 25 µM | DPAGT1 inhibitory activity (in words) (DPAGT1 (Human)): high nM range DPAGT1 inhibitors | AglH inhibitory activity (in words) (AglH (M. jannaschii)): very weak

CO[C@H]1[C@@H](O)[C@H](n2ccc(=O)[nH]c2=O)O[C@@H]1[C@@H](O[C@H]1OC(C(=O)N[C@H]2CCCCNC2=O)=C[C@H](O)[C@@H]1O)C(N)=O [Capuramycin]
IC50 [1]: 0.13 µM | MraY inhibitory activity (in words) [1]: selective MraY inhibitor | IC50 (WecA (E. coli)): > 50 µM | WecA inhibitory activity (in words) (WecA (E. coli)): does not display inhibitory activity | IC50 (AsPC-1; Homo sapiens, ASPC1, 72 h): > 50 µM | IC50 (PANC-1; Homo sapiens, PANC-1, 72 h): > 50 µM | IC50 (Capan-2; Homo sapiens, Capan-2, 72 h): > 50 µM | IC50 (HPNE; HPNE): > 50 µM | IC50 (L1210; Mus musculus, L1210): > 50 µM | IC50 (PD002 [3]; PD002): > 50 µM | IC50 (Vero; Chlorocebus sabaeus, Vero): > 50 µM | IC50 (KB; Homo sapiens, KB): > 50 µM | IC50 (DLD-1; Homo sapiens, DLD-1, 72 h): > 50 µM | IC50 (HCT-116; Homo sapiens, HCT-116, 72 h): > 50 µM | IC50 (SiHa; Homo sapiens, SiHa): > 50 µM | IC50 (MraY): 0.15 µM | DPAGT1 inhibitory activity (in words) (DPAGT1 (Human)): does not display inhibitory activity | AglH inhibitory activity (in words) (AglH (M. jannaschii)): does not display inhibitory activity | IC50 (AglH (M. jannaschii)): > 50 µM

CO[C@H]1[C@@H](OC)[C@H](n2ccc(=O)[nH]c2=O)O[C@@H]1[C@@H](O[C@H]1OC(C(=O)N[C@H]2CCCCNC2=O)=C[C@H](O)[C@@H]1O)C(N)=O [O-Methyl capuramycin]
IC50 [1]: > 50 µM | IC50 (WecA (E. coli); read-out: IC50 WecA (E. coli)): 0.06 µM | IC50 (AsPC-1; 72 h): > 50 µM | IC50 (PANC-1; 72 h): > 50 µM | IC50 (Capan-2; 72 h): > 50 µM | MraY/MurX inhibitory activity (in words) (MraY/MurX): does not exhibit MraY/MurX inhibitory activity | IC50 (HPNE): > 50 µM | IC50 (L1210): > 50 µM | IC50 (PD002 [3]): > 50 µM | IC50 (Vero): > 50 µM | IC50 (KB): > 50 µM | IC50 (DLD-1; 72 h): > 50 µM | IC50 (HCT-116; 72 h): > 50 µM | IC50 (SiHa): > 50 µM | IC50 (DPAGT1 (Human)): 4.5 µM | IC50 (DPAGT1 (Human); listed as OM-CAP): 3.5 µM | IC50 (WecA): ~0.06 µM

Tunicamycin
IC50 [1]: 2.9 µM | LD100 (mice): 3.5 mg/kg | LDs50 (mice): 2.0 mg/kg | IC50 (WecA (E. coli); read-out: IC50 WecA (E. coli)): 0.15 µM | IC50 (AsPC-1; 72 h): 0.45 µM | IC50 (PANC-1; 72 h): 1.5 µM | IC50 (Capan-2; 72 h): 1.5 µM | IC50 (MraY/MurX): 3.38 µM | IC50 (cell lines in Table 2; all cell lines in Table 2, read-out: IC50 range, growth inhibition of all cell lines in Table 2): 0.78 to 7.5 µM and 0.45 to 7.5 µM | DPAGT1 protein expression (DPAGT1 [4]): decreased | wound-healing rate (PD002 [5]): 35% | IC50 (HPNE): 7.5 µM | IC50 (L1210): 1.7 µM | IC50 (PD002 [3]): 1.5 µM | IC50 (Vero): 0.78 µM | IC50 (KB): 2.5 µM | IC50 (DLD-1; 72 h): 1.25 µM | IC50 (HCT-116; 72 h): 0.92 µM | IC50 (SiHa): 0.92 µM | IC50 (DPAGT1 [6]): 2.5 µM | DPAGT1 gene expression (DPAGT1 gene): decreased | IC50 (DPAGT1 (Human)): 1.5 µM | IC50 (AglH (M. jannaschii); read-out: IC50 AglH (M. jannaschii)): 13.2 µM | IC50 (WecA): 0.15 µM
